Measured values published in PubChem BioAssay AID1963977 (Molecular Pharmacology Branch, DTP, NCI, 2024).

System: 624824-186-R-J3-PDC multicell spheroids, viability
Assay: Anticancer human tumor 624824-186-R-J3-PDC patient-derived colon adenocarcinoma cell line growth inhibition [PI3K]
Conditions: for viability, T/C: stronger effect = lower value
How it was run: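 Spheroid viability read-out. Co-cultures contained the tumor line plus HUVEC and human MSCs. Each agent was paired with a PI3K inhibitor (inavolisib, alpelisib, duvelisib, copanlisib) across half-log dilutions starting at clinical Cmax, or at 10 microM when Cmax was unknown.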
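Further: spheroids exposed to agents for seven days before luminescence read.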
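Wherever viability, T/C is given: luminescent signal used as a stand-in for spheroid viability; percent viability relative to DMSO vehicle control wells taken as 100%.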

C=CC(=O)N1CCN(c2nc(=O)n(-c3c(C)ccnc3C(C)C)c3nc(-c4c(O)cccc4F)c(F)cc23)C(C)C1 (centres undefined) + COc1c(OCCCN2CCOCC2)ccc2c3n(c(=NC(=O)c4cnc(N)nc4)nc12)CCN3
IC50 (curve of first compound, second compound 0.00316 µM): > 10 µM
IC50 (curve of first compound, second compound 0.01 µM): > 10 µM
IC50 (curve of first compound, second compound 0.0316 µM): > 10 µM
IC50 (curve of first compound, second compound 0.1 µM): > 10 µM
IC50 (curve of first compound, second compound 0.316 µM): 3.43 µM
IC50 (curve of first compound, second compound 1 µM): < 0.0316 µM
viability, T/C (second compound 0.00316 µM, first compound 0.0316 µM): 119%
viability, T/C (second compound 0.00316 µM, first compound 0.1 µM): 100%
viability, T/C (second compound 0.00316 µM, first compound 0.316 µM): 112%
viability, T/C (second compound 0.00316 µM, first compound 1 µM): 97%
viability, T/C (second compound 0.00316 µM, first compound 3.16 µM): 100%
viability, T/C (second compound 0.00316 µM, first compound 10 µM): 99.1%
viability, T/C (second compound 0.01 µM, first compound 0.0316 µM): 93.1%
viability, T/C (second compound 0.01 µM, first compound 0.1 µM): 96.6%
viability, T/C (second compound 0.01 µM, first compound 0.316 µM): 104%
viability, T/C (second compound 0.01 µM, first compound 1 µM): 108%
viability, T/C (second compound 0.01 µM, first compound 3.16 µM): 97.7%
viability, T/C (second compound 0.01 µM, first compound 10 µM): 98.8%
viability, T/C (second compound 0.0316 µM, first compound 0.0316 µM): 99.8%
viability, T/C (second compound 0.0316 µM, first compound 0.1 µM): 101%
viability, T/C (second compound 0.0316 µM, first compound 0.316 µM): 92.9%
viability, T/C (second compound 0.0316 µM, first compound 1 µM): 99%
viability, T/C (second compound 0.0316 µM, first compound 3.16 µM): 89.7%
viability, T/C (second compound 0.0316 µM, first compound 10 µM): 92.7%
viability, T/C (second compound 0.1 µM, first compound 0.0316 µM): 78.1%
viability, T/C (second compound 0.1 µM, first compound 0.1 µM): 79.3%
viability, T/C (second compound 0.1 µM, first compound 0.316 µM): 78.7%
viability, T/C (second compound 0.1 µM, first compound 1 µM): 80.6%
viability, T/C (second compound 0.1 µM, first compound 3.16 µM): 80.2%
viability, T/C (second compound 0.1 µM, first compound 10 µM): 72.7%
viability, T/C (second compound 0.316 µM, first compound 0.0316 µM): 48.7%
viability, T/C (second compound 0.316 µM, first compound 0.1 µM): 53.1%
viability, T/C (second compound 0.316 µM, first compound 0.316 µM): 53.2%
viability, T/C (second compound 0.316 µM, first compound 1 µM): 46.7%
viability, T/C (second compound 0.316 µM, first compound 3.16 µM): 51.8%
viability, T/C (second compound 0.316 µM, first compound 10 µM): 41.2%
viability, T/C (second compound 1 µM, first compound 0.0316 µM): 28.9%
viability, T/C (second compound 1 µM, first compound 0.1 µM): 30.5%
viability, T/C (second compound 1 µM, first compound 0.316 µM): 29%
viability, T/C (second compound 1 µM, first compound 1 µM): 25.6%
viability, T/C (second compound 1 µM, first compound 3.16 µM): 26.3%
viability, T/C (second compound 1 µM, first compound 10 µM): 33.9%

Cc1nc(NC(=O)N2CCCC2C(N)=O)sc1-c1ccnc(C(C)(C)C(F)(F)F)c1 (centres undefined)
viability, T/C (compound 0.0316 µM): 102% [middle of 8 runs]
viability, T/C (compound 0.1 µM): 108% [middle of 8 runs]
viability, T/C (compound 0.316 µM): 109% [middle of 8 runs]
viability, T/C (compound 1 µM): 107% [middle of 8 runs]
viability, T/C (compound 3.16 µM): 94% [middle of 8 runs]
viability, T/C (compound 10 µM): 72.8% [middle of 8 runs]
IC50 (compound alone, run of 04/24/2023): > 10 µM
